This note sets out measurements from US9745302B2 (TriOptoTec GmbH, priority 2011, dated 2017).

In assay [1] the test system is Staphylococcus aureus (ATCC number: 25923). The experiment in a line: Phototoxicity test (photodynamic inactivation, CFU count by Miles and Misra). The assay is classed as cell-based. Particulars: irradiated at 50 mW/cm^2, 210 sec, 390-500 nm, CFU/ml counted after 24 h, median of 3. As for the experimental part:
(§1) A sample of the bacterial strain Staphylococcus aureus (ATCC number: 25923) or Escherichia coli (ATCC number: 25922) was taken from a cryogenically frozen culture, isolated on Müller-Hinton agar plates and cultivated under aerobic conditions at 37° C. in an overnight culture. Thereafter, 5 ml of Müller-Hinton liquid medium were inoculated with a smear of the bacterial culture (single colony) and incubated at 37° C. overnight. The bacterial suspension thus obtained was centrifuged at 2500 rpm for 10 min and the bacterial pellet obtained was resuspended in 5 ml of sterile PBS. The optical density of the bacterial suspension for the phototoxicity tests was OD600 nm=0.6, which corresponds to a bacteria count of ˜[…] bacteria per ml. The biochemical analysis and resistance determination of the bacteria were conducted with the VITEK2 system according to the M100-S14 guidelines from the NCCLS (2004).
(§2) 200 μl of a bacterial suspension (bacterial density: 10^8-10^12/ml) were incubated with 200 μl of each of various concentrations of the photosensitizers to be tested at room temperature for 10 min or 30 min. Thereafter, the bacteria were washed twice with distilled water and resuspended in 200 μl of distilled water, and the entire volume was transferred to a 96-well microtiter plate and then irradiated. The photosensitizers used were dissolved in distilled water and various dilution series were prepared (0 μM, 1 μM, 10 μM, 100 μM).
(§3) For sensitization, the Omnicure Series 2000 lamp (Photonics Solutions Inc., Edinburgh, UK) was used, which emits light from a range from 390 nm to 500 nm and has emission maxima Emax at 405 nm and 436 nm. The power applied in each case was 50 mW/cm^2.
(§4) Irradiated and unirradiated samples were used as controls. Likewise run were bacterial suspensions incubated only with photosensitizer (dark control).
(§5) The determination of the colony-forming units (CFU) per ml was conducted by the method published by Miles and Misra (Miles, A A; Misra, S S, Irwin, J O (1938 November). “The estimation of the bactericidal power of the blood.”. The Journal of hygiene 38 (6): 732-49). For this purpose, serial dilutions from 10^−2 to 10^−9 of the corresponding bacterial suspension were prepared. 3×20 μl of each of the corresponding bacterial dilutions were then dripped onto Müller-Hinton plates and incubated at 37° C. for 24 h. Thereafter, the number of surviving colony-forming units (CFU) was determined. Each of the experiments was repeated three times.
(§6) The effectiveness of phototoxicity with respect to bacteria after irradiation was defined according to the following guidelines for hand hygiene in the health sector (Boyce, J. M., and D. Pittet. 2002. Guideline for Hand Hygiene in Health-Care Settings: recommendations of the Healthcare Infection Control Practices Advisory Committee and the HICPAC/SHEA/APIC/IDSA Hand Hygiene Task Force. Infect Control Hosp Epidemiol 23: p. 3-40): • reduction in the CFU/ml by 1 log10 stage ? 90% effectiveness • reduction in the CFU/ml by 3 log10 stages ? 99.9% effectiveness • reduction in the CFU/ml by 5 log10 stages ? 99.999% effectiveness
(§7) For effective inactivation, the decrease of ≧3 log10 stages can therefore be adopted, and S. aureus and E. coli were chosen as examples of representatives from the group of the Gram-positive and Gram-negative bacteria (see Boyce J. M and D. Pittet 2009).

Assay [2] deals with Escherichia coli (ATCC number: 25922). The assay is described as above. Type of assay: cell-based. Particulars: irradiated at 50 mW/cm^2, 210 sec, 390-500 nm, CFU/ml counted after 24 h, median of 3. As to the method: as §1, §2, §3, §4, §5, §6, §7

Counter-ions that a name gives are not always drawn. Where only a bound is given, the exact number is not on record here.

Regarding `Cc1cc2nc3c(=O)[nH]c(=O)nc-3n(CC(OC(=O)C(N)CCCCN)C(OC(=O)C(N)CCCCN)C(COC(=O)C(N)CCCCN)OC(=O)C(N)CCCCN)c2cc1C` (centres unmarked), the “Required concentration [μM] to achieve a reduction by ≧3log10 stages (decrease by 99.9%), irradiation at 10.5 J/cm^2, S. aureus” value in assay [1] (incubation 10 min) stood at 10 μM. Further, the “Required concentration [μM] to achieve a reduction by ≧3log10 stages (decrease by 99.9%), irradiation at 10.5 J/cm^2, E. coli” value in assay [2] (incubation 10 min) came out at 10 μM.
Consider `Cc1cc2nc3c(=O)n(CCN)c(=O)nc-3n(CCN)c2cc1C` [FL-02, 3,10-bis(2′-aminoeth-1′-yl)-7,8-dimethylbenzo[g]pteridine-2,4-dione hydrochloride], for which the “Required concentration [μM] to achieve a reduction by ≧3log10 stages (decrease by 99.9%), irradiation at 10.5 J/cm^2, S. aureus” value in assay [1] (incubation 10 min) is 10 μM. Further, the “Required concentration [μM] to achieve a reduction by ≧3log10 stages (decrease by 99.9%), irradiation at 10.5 J/cm^2, E. coli” value in assay [2] (incubation 10 min) is 10 μM.
Take `CC(=O)OCC(OC(C)=O)C(OC(C)=O)C(Cn1c2nc(=O)n(CCC[n+]3ccc(-c4cc[n+](C)cc4)cc3)c(=O)c-2nc2cc(C)c(C)cc21)OC(C)=O.[I-].[I-]` (centres unmarked) [FL-08, 1-{3-[7,8-dimethyl-2,4-dioxo-10-(2,3,4,5-tetraacetoxypentyl)-4,10-dihydro-2H-benzo[g]pteridin-3-yl]propyl}methyl-[4,4′]bipyridinyl-1-ium diiodide]: the “Required concentration [μM] to achieve a reduction by ≧3log10 stages (decrease by 99.9%), irradiation at 10.5 J/cm^2, S. aureus” value in assay [1] (incubation 10 min) is reported as 1 μM. Further, the “Required concentration [μM] to achieve a reduction by ≧3log10 stages (decrease by 99.9%), irradiation at 10.5 J/cm^2, E. coli” value in assay [2] (incubation 10 min) is on record as 1 μM.
Regarding `CCCCn1c2nc(=O)n(CCC[n+]3ccc(-c4cc[n+](C)cc4)cc3)c(=O)c-2nc2cc(C)c(C)cc21.[I-].[I-]` [FL-08b, 1-{3-[7,8-dimethyl-2,4-dioxo-10-(butyl)-4,10-dihydro-2H-benzo[g]pteridin-3-yl]-propyl}methyl-[4,4′]bipyridinyl-1-ium diiodide], the “Required concentration [μM] to achieve a reduction by ≧3log10 stages (decrease by 99.9%), irradiation at 10.5 J/cm^2, S. aureus” value in assay [1] (incubation 10 min) came out at 10 μM. Also, the “Required concentration [μM] to achieve a reduction by ≧3log10 stages (decrease by 99.9%), irradiation at 10.5 J/cm^2, E. coli” value in assay [2] (incubation 10 min) amounted to 50 μM.
In the case of `CC[N+](CC)(CC)Cc1cc2c(cc1C)nc1c(=O)n(CCN)c(=O)nc-1n2CCN.Cl.Cl.[Br-]` [FL-13, [3,10-bis(2-aminoethyl)-7-methyl-2,4-dioxo-2,3,4,10-tetrahydro-benzo[g]pteridin-8-ylmethyl]triethylammonium bromide dihydrochloride], the “Required concentration [μM] to achieve a reduction by ≧3log10 stages (decrease by 99.9%), irradiation at 10.5 J/cm^2, S. aureus” value in assay [1] (incubation 30 min) turned out to be 10 μM. For the same compound, in assay [2] (incubation 30 min), the “Required concentration [μM] to achieve a reduction by ≧3log10 stages (decrease by 99.9%), irradiation at 10.5 J/cm^2, E. coli” value is listed as 10 μM.
As for `CCCCn1c2nc(=O)n(CC[N+](C)(C)C)c(=O)c-2nc2cc(C)c(C[N+](CC)(CC)CC)cc21.[Br-].[Br-]` [FL-15, [10-butyl-3-(2-trimethylammoniumethyl)-7-methyl-2,4-dioxo-2,3,4, 10-tetrahydrobenzo[g]pteridin-8-ylmethyl]triethylammonium dibromide], the “Required concentration [μM] to achieve a reduction by ≧3log10 stages (decrease by 99.9%), irradiation at 10.5 J/cm^2, S. aureus” value in assay [1] (incubation 30 min) amounted to 10 μM. Further, the “Required concentration [μM] to achieve a reduction by ≧3log10 stages (decrease by 99.9%), irradiation at 10.5 J/cm^2, E. coli” value in assay [2] (incubation 30 min) was 10 μM.
For `Cc1cc2nc3c(=O)n(CC[N+](C)(C)C)c(=O)nc-3n(CC[N+](C)(C)C)c2cc1C.[I-].[I-]` [FL-17, 3,10-bis(2-trimethylammoniumethyl)-7,8-dimethyl-10H-benzo[g]pteridine-2,4-dione dibromide], in assay [1] (incubation 30 min), the “Required concentration [μM] to achieve a reduction by ≧3log10 stages (decrease by 99.9%), irradiation at 10.5 J/cm^2, S. aureus” value was 100 μM. Also, the “Required concentration [μM] to achieve a reduction by ≧3log10 stages (decrease by 99.9%), irradiation at 10.5 J/cm^2, E. coli” value in assay [2] (incubation 30 min) is given as 100 μM.
With `Cc1cc2nc3c(=O)n(CCN)c(=O)nc-3n(CC[N+](C)(C)CCN)c2cc1C.Cl.Cl.[Cl-]` [FL-24, (2-aminoethyl)-{2-[3-(2-aminoethyl)-7,8-dimethyl-2,4-dioxo-3,4-dihydro-2H-benzo[g]pteridin-10-yl]ethyl}dimethylammonium chloride dihydrochloride], the “Required concentration [μM] to achieve a reduction by ≧3log10 stages (decrease by 99.9%), irradiation at 10.5 J/cm^2, S. aureus” value in assay [1] (incubation 30 min) stood at 10 μM. The “Required concentration [μM] to achieve a reduction by ≧3log10 stages (decrease by 99.9%), irradiation at 10.5 J/cm^2, E. coli” value in assay [2] (incubation 30 min) is given as >100^(*^) μM.
As to `Cc1cc2nc3c(=O)n(CC[N+](C)(C)C)c(=O)nc-3n(CC[N+](C)(C)CC[N+](C)(C)C)c2cc1C.[Br-].[Br-].[Br-]` [FL-26, 3-(2-trimethylammoniumethyl)-10-{2-[(2-trimethylammoniumethyl)dimethyl-ammonium]ethyl}-7,8-dimethyl-10H-benzo[g]pteridine-2,4-dione tribromide], the “Required concentration [μM] to achieve a reduction by ≧3log10 stages (decrease by 99.9%), irradiation at 10.5 J/cm^2, S. aureus” value in assay [1] (incubation 30 min) was determined as 10 μM. Moreover, the “Required concentration [μM] to achieve a reduction by ≧3log10 stages (decrease by 99.9%), irradiation at 10.5 J/cm^2, E. coli” value in assay [2] (incubation 30 min) is on record as >100^(*^) μM.
As to `Cc1cc2nc3c(=O)[nH]c(=O)nc-3n(CCNCCN)c2cc1C.Cl.Cl` [FL-27, (2-aminoethyl)-[2-(7,8-dimethyl-2,4-dioxo-3,4-dihydro-2H-benzo[g]pteridin-10-yl)ethyl]amine dihydrochloride], in assay [1] (incubation 30 min), the “Required concentration [μM] to achieve a reduction by ≧3log10 stages (decrease by 99.9%), irradiation at 10.5 J/cm^2, S. aureus” value came out at 10 μM. Also, in assay [2] (incubation 30 min), the “Required concentration [μM] to achieve a reduction by ≧3log10 stages (decrease by 99.9%), irradiation at 10.5 J/cm^2, E. coli” value worked out at 100 μM.
